Laboratory results reported in US11590148B2, “Use of calcifediol in bariatric surgery patients” (OPKO IRELAND GLOBAL HOLDINGS, LTD., priority 2018, dated 2023).

What was measured:
Assay type in all cases: in vivo, human
[1] = system: patients with intractable VDI having undergone bariatric surgery; test: Long-term efficacy study in bariatric surgery patients (52-week, ERC)
Procedure: The effectiveness of oral extended-release 25-hydroxyvitamin D3 (ERC) in raising serum total 25-hydroxyvitamin D to ≥30 ng/mL and reducing plasma iPTH by at least 30% from pre-treatement baseline is examined in a 52-week study of male and female patients aged at least 18 years, with intractable VDI, and having undergone bariatric surgery. In a randomized, double-blind controlled study, patients receive ERC or matching placebo.
Subjects are without any disease state or physical condition that might impair evaluation of safety or which would interfere with study participation, including having serum albumin ≤3.0 g/dL; and serum transaminase (alanine aminotransferase [ALT], glutamic-pyruvic transaminase [SGPT], aspartate aminotransferase [AST] or glutamic-oxaloacetic transaminase [SGOT])>2.5 times the upper limit of normal at screening.
When otherwise confirmed eligible at Visit 1, if taking more than 1,500 mg per day of elemental calcium (from diet and supplements), subjects reduce calcium use (to ≤1,500 mg per day) for the duration of the study.
When otherwise confirmed eligible at Visit 1, if taking bone metabolism therapies that may interfere with study endpoints, subjects discontinue use of these agents for the duration of the study. […]
Blood samples are collected at weekly, biweekly or monthly intervals during the pre-treatment period, the 52-week treatment period, the 6-week post-treatment FU period, and at early termination (ET), if applicable. Key parameters analyzed in the collected samples include: plasma iPTH, serum calcium (corrected for serum albumin), serum phosphorus, serum total 25-hydroxyvitamin D, serum calcifediol, serum 1,25-dihydroxyvitamin D3, and serum 24,25-dihydroxyvitamin D3 (24,25D3). Vital signs (VS), and AEs are monitored at each study visit. Other parameters monitored less frequently include brief physical examinations (PEs) and clinical laboratory tests (hematology and clinical chemistries). […] Additional parameters, including serum FGF23 and serum bone turnover markers are monitored at specified intervals. […]

[2] = system: patients who are candidates for Roux-en-Y Surgery; test: Efficacy study in Roux-en-Y surgery patients (6-month)
Procedure: The effectiveness of oral sustained-release 25-hydroxyvitamin D3 in restoring serum total 25-hydroxyvitamin D to optimal levels (>30 ng/mL) and reducing parathyroid hormone level, is examined in a 6-month study of adult male and female patients who are candidates for Roux-en-Y Surgery for weight reduction. In a controlled study, patients are treated with sustained-release 25-hydroxyvitamin D3 (softgel capsules containing 25-hydroxyvitamin D3).
A total of 60 subjects participate in this study, all of whom have serum total 25-hydroxyvitamin D levels less than 30 ng/mL at the time of enrollment and serum intact parathyroid hormone levels greater than 70 pg/mL as evidence of SHPT. All subjects receive a multivitamin therapy including calcium (up to 1,000 mg daily) and cholecalciferol (3000 IU daily) following surgery, and abstain from receiving other Vitamin D therapy and significant sun exposure. Serum total 25-hydroxyvitamin D, serum intact parathyroid hormone, serum calcium, serum phosphorus, urinary calcium, urinary phosphorus, and urinary creatinine are measured from the day of surgery, and at monthly intervals following surgery.
After 2 months, the daily calcium dosage is maintained unchanged, and the cholecalciferol supplement is discontinued, while daily administration of sustained-release 25-hydroxyvitamin D3 (softgel capsules containing 30 μg 25-hydroxyvitamin D3) is initiated and continued for four months.

[3] = system: patients having undergone bariatric surgery (bypass of at least the duodenum); test: Long-term efficacy study in Roux-en-Y surgery patients (one year, randomized, double-blind, vs cholecalciferol)
Procedure: The effectiveness of oral sustained-release 25-hydroxyvitamin D3 in restoring serum total 25-hydroxyvitamin D to optimal levels (>30 ng/mL) and increasing bone mineral density, is examined in a one year study of adult male and female patients having undergone bariatric surgery for weight reduction, wherein the surgery included bypass of at least the duodenum. In a randomized, double-blind controlled study, patients are treated with sustained-release 25-hydroxyvitamin D3 or cholecalciferol.
A total of 200 subjects participate in this study. All subjects participating in this study are aged 18 years or older, have bone mineral density T-scores between −2.0 and −4.0 as assessed by dual energy x-ray absorptiometry (DEXA), and have serum total 25-hydroxyvitamin D levels less than 30 ng/mL at the time of enrollment. All subjects receive a multivitamin therapy including calcium (up to 1,000 mg daily) and either cholecalciferol (3000 IU daily) or multiple sustained-release 25-hydroxyvitamin D3 (softgel capsules containing 30 μg 25-hydroxyvitamin D3), and abstain from receiving other Vitamin D therapy and significant sun exposure at study start and continuing through study termination.
After 3 months, the daily 25-hydroxyvitamin D3 softgel capsule dosage is maintained unchanged in patients whose serum total 25-hydroxyvitamin D is between 50 and 90 ng/mL, and increased by one capsule in patients whose serum total 25-hydroxyvitamin D is below 50 ng/mL.
Serum total 25-hydroxyvitamin D, plasma iPTH, serum calcium, serum phosphorus, urinary calcium, urinary phosphorus, and urinary creatinine are measured from the day of surgery, and at monthly intervals. Bone mineral density at four sites (total hip, femoral neck, ⅓radius, and lumbar spine) is determined at quarterly intervals by DEXA.

[4] = after 12 months of treatment, DEXA
[5] = once stable dosing has been achieved
[6] = months 0-2, cholecalciferol 3000 IU daily
[7] = time zero and months 1 and 2, cholecalciferol 3000 IU daily following surgery

Q: For `C=C1CC[C@H](O)C/C1=C/C=C1\CCC[C@]2(C)[C@@H]([C@H](C)CCCC(C)C)CC[C@@H]12` [cholecalciferol], which “change in bone mineral density” value [1, 4] is on record?
A: insignificant changes or reductions

Q: What about the incidence of hypocalcemia [1, 5] of the same compound?
A: occur more frequently

Q: And the “severity / occurrence of secondary hyperparathyroidism” value [1, 5]?
A: occur more frequently

Q: And the “change in mean serum total 25-hydroxyvitamin D level following surgery” value [2, 6]?
A: only a moderate increase

Q: And the “change in serum intact parathyroid hormone level following surgery” value [2, 6]?
A: no significant difference

Q: And the “group mean serum intact parathyroid hormone level” value [2, 7]?
A: greater than 70 pg/mL

Q: And the “group mean serum total 25-hydroxyvitamin D level” value [2, 7]?
A: less than 30 ng/mL

Q: What about the “change in bone mineral density” value [3, 4] of the same compound?
A: insignificant changes or reductions

Q: What about the incidence of hypocalcemia [3, 5] of the same compound?
A: occur more frequently

Q: What about the “severity / occurrence of secondary hyperparathyroidism” value [3, 5] of the same compound?
A: occur more frequently
